Assay results reported in publication PMC12655637, “Design, Synthesis, and Mechanistic Study of Novel Ciprofloxacin/Thiazole Chalcone Hybrids as Potential Anticancer Agents” (Pharmaceuticals, 2025).

Columns and labels:
[1] = test system: HL-60(TB); experiment: NCI-60 screening, one-dose (10 µM) and five-dose, SRB; assay type: cell-based, human; conditions: Homo sapiens, HL-60, 10 μM; HL-60(TB), Leukemia; read-out: Growth percentage
[2] = test system: MOLT-4; experiment: as above; assay type: cell-based, human; conditions: Homo sapiens; 10 μM; MOLT-4, Leukemia; read-out: Growth percentage
[3] = test system: A549/ATCC; experiment: as above; assay type: cell-based, human; conditions: Homo sapiens, 10 μM, Non-Small-Cell Lung Cancer, read-out: Growth percentage
[4] = test system: HOP-62; experiment: as above; assay type: cell-based, human; conditions: Homo sapiens, HOP-62, 10 μM; HOP-62, Non-Small-Cell Lung Cancer; read-out: Growth percentage
[5] = test system: NCI-H522; experiment: as above; assay type: cell-based, human; conditions: Homo sapiens; 10 μM; NCI-H522, Non-Small-Cell Lung Cancer; read-out: Growth percentage
[6] = test system: HCT-15; experiment: as above; assay type: cell-based, human; conditions: Homo sapiens; 10 μM; HCT-15, Colon Cancer; read-out: Growth percentage
[7] = test system: HT29; experiment: as above; assay type: cell-based, human; conditions: Homo sapiens, HT-29; 10 μM; HT29, Colon Cancer; read-out: Growth percentage
[8] = test system: SF-539; experiment: as above; assay type: cell-based, human; conditions: Homo sapiens, SF-539, 10 μM; SF-539, CNS Cancer; read-out: Growth percentage
[9] = test system: SNB-19; experiment: as above; assay type: cell-based; conditions: Homo sapiens; 10 μM; SNB-19, CNS Cancer; read-out: Growth percentage
[10] = test system: SNB-75; experiment: as above; assay type: cell-based, human; conditions: Homo sapiens; 10 μM; SNB-75, CNS Cancer; read-out: Growth percentage
[11] = test system: U251; experiment: as above; assay type: cell-based, human; conditions: Homo sapiens, U-251; 10 μM; U251, CNS Cancer; read-out: Growth percentage
[12] = test system: LOX IMVI; experiment: as above; assay type: cell-based, human; conditions: Homo sapiens, 10 μM, Melanoma, read-out: Growth percentage
[13] = test system: M14; experiment: as above; assay type: cell-based, human; conditions: Homo sapiens; 10 μM; M14, Melanoma; read-out: Growth percentage
[14] = test system: MDA-MB-435; experiment: as above; assay type: cell-based; conditions: Homo sapiens, MDA-MB-435, read-out: Growth percentage, 10 μM; MDA-MB-435, Melanoma
[15] = test system: SK-MEL-28; experiment: as above; assay type: cell-based, human; conditions: Homo sapiens; 10 μM; SK-MEL-28, Melanoma; read-out: Growth percentage
[16] = test system: SK-MEL-5; experiment: as above; assay type: cell-based, human; conditions: Homo sapiens; 10 μM; SK-MEL-5, Melanoma; read-out: Growth percentage
[17] = test system: UACC-62; experiment: as above; assay type: cell-based; conditions: Homo sapiens; 10 μM; UACC-62, Melanoma; read-out: Growth percentage
[18] = test system: OVCAR-3; experiment: as above; assay type: cell-based; conditions: Homo sapiens; 10 μM; OVCAR-3, Ovarian Cancer; read-out: Growth percentage
[19] = test system: OVCAR-5; experiment: as above; assay type: cell-based, human; conditions: 10 μM; OVCAR-5, Ovarian Cancer
[20] = test system: OVCAR-8; experiment: as above; assay type: cell-based, human; conditions: Homo sapiens; 10 μM; OVCAR-8, Ovarian Cancer; read-out: Growth percentage
[21] = test system: NCI/ADR-RES; experiment: as above; assay type: cell-based, human; conditions: Homo sapiens, 10 μM, Ovarian Cancer, read-out: Growth percentage
[22] = test system: SK-OV-3; experiment: as above; assay type: cell-based, human; conditions: Homo sapiens; 10 μM; SK-OV-3, Ovarian Cancer; read-out: Growth percentage
[23] = test system: A498; experiment: as above; assay type: cell-based; conditions: Homo sapiens, A498, 10 μM; A498, Renal Cancer; read-out: Growth percentage
[24] = test system: PC-3; experiment: as above; assay type: cell-based, human; conditions: Homo sapiens; 10 μM; PC-3, Prostate Cancer; read-out: Growth percentage
[25] = test system: BT-549; experiment: as above; assay type: cell-based; conditions: Homo sapiens; 10 μM; BT-549, Breast Cancer; read-out: Growth percentage
[26] = test system: T-47D; experiment: as above; assay type: cell-based, human; conditions: 10 μM, Breast Cancer
[27] = test system: 60 human cancer cell lines; experiment: NCI-60 screening, full panel (mean growth, MID a, ranges over all lines); conditions: Homo sapiens, read-out: Mean growth percentage

SMILES | activity at 10 µM [1] | activity at 10 µM [2] | activity at 10 µM [3] | activity at 10 µM [4] | activity at 10 µM [5] | activity at 10 µM [6] | activity at 10 µM [7] | activity at 10 µM [8] | activity at 10 µM [9] | activity at 10 µM [10] | activity at 10 µM [11] | activity at 10 µM [12] | activity at 10 µM [13] | activity at 10 µM [14] | activity at 10 µM [15] | activity at 10 µM [16] | activity at 10 µM [17] | activity at 10 µM [18] | Growth percentage [19] | activity at 10 µM [20] | other results
Cc1nc(SCC(=O)N2CCN(c3cc4c(cc3F)c(=O)c(C(=O)O)cn4C3CC3)CC2)sc1C(=O)/C=C/c1ccc([N+](=O)[O-])cc1 [Compound 4h, (E)-1-Cyclopropyl-6-fluoro-7-(4-(2-((4-methyl-5-(3-(4-nitrophenyl)acryloyl)thiazol-2-yl)thio)acetyl)piperazin-1-yl)-4-oxo-1,4-dihydroquinoline-3-carboxylic Acid] | 80.9% | 62.7% | 99.7% | 88.3% | 27.9% | 62.3% | 76.1% | 67.9% | 72.2% | 91.2% | 59.9% | 28.3% | 70.5% | 88.4% | 60% | 83.5% | 59% | 49.4% | 121.1% | 68.9% | activity at 10 µM [21]: 88.8%; activity at 10 µM [22]: 119%; activity at 10 µM [23]: 125%; activity at 10 µM [24]: 85.9%; activity at 10 µM [25]: 83.9%; Growth percentage [26]: 64.1%; activity at 10 µM [27]: 77.6%
Cc1nc(SCC(=O)N2CCN(c3cc4c(cc3F)c(=O)c(C(=O)O)cn4C3CC3)CC2)sc1C(=O)/C=C/c1ccc(N(C)C)cc1 [Compound 4i, (E)-1-Cyclopropyl-7-(4-(2-((5-(3-(4-(dimethylamino)phenyl)acryloyl)-4-methylthiazol-2-yl)thio)acetyl)piperazin-1-yl)-6-fluoro-4-oxo-1,4-dihydroquinoline-3-carboxylic Acid] | 89.5% | 89.2% | 103% | 105% | 78.5% | 83.2% | 47.9% | 74.4% | 88.6% | 104% | 48% | 24.6% | 75.9% | 26.6% | 95.9% | 89.8% | 79.9% | 172% | 102.5% | 76.5% | activity at 10 µM [21]: 97.1%; activity at 10 µM [22]: 119%; activity at 10 µM [23]: 126%; activity at 10 µM [24]: 96.7%; activity at 10 µM [25]: 12.9%; Growth percentage [26]: 88.2%; activity at 10 µM [27]: 83.9%
